We go through two compounds from patent EP0215136B1, “Hexetidin-containing therapeutically active agent, method for its preparation and its use as a vaginal disinfectant” (Artesan Pharma Gesellschaft mit beschränkter Haftung, priority 1985, dated 1987).

Data set [1] in a line: Stability of hexetidine in aqueous solution. The class given is physicochemical. The settings on record: neutral to weakly acidic aqueous solution; rearranges to two isomers up to an equilibrium. An excerpt:
Aufgrund über Jahre geführter Untersuchungen sind die bekannten Methoden nicht geeignet, ein stabiles pharmazeutisches Präparat herzustellen. […] Es lagert sich bis zu einem Gleichgewicht in zwei isomere Substanzen um. Zwar wirken diese im Prinzip gleichartig, jedoch dürfen sie aus gesundheitsrechtlichen Gründen im Endprodukt nur geringfügig vorhanden sein.

For data set [2] the following is noted: cited from earlier work.
For data set [3] the following is noted: cited from earlier work. The source holds these as a separate data set.

With `CCCCC(CC)CN1CN(CC(CC)CCCC)CC(C)(N)C1` (centres unmarked) [Hexetidin, 1,3-Bis-(2-ethylhexyl)-hexahydro-5-methyl-5-pyrimidinamin], the “Haltbarkeit in wässeriger Lösung” value in data set [1] was “nur kurzfristig haltbar”. Further, in data set [2] (known property), the “Haut- und Schleimhaut-Verträglichkeit” value was “gute” and the “Toxizität bei Resorption” value is listed as “geringe”. In addition, the “toxische Wirkung” value in data set [2] (use as 0,1% gargle solution over 20 years) is listed as “nie beobachtet”. The “Löslichkeit in Alkohol” value in data set [3] (Alkohol) is recorded as “leicht löslich”. For the same compound, in data set [3], the “Löslichkeit in Wasser” value is “nur schwer löslich”. Further, the “Löslichkeit in unpolaren organischen Lösungsmitteln” value in data set [3] (unpolare organische Lösungsmittel) is on record as “leicht löslich”.

Regarding `CCCCC(CC)CN1CN(CC(CC)CCCC)CC(C)(N)C1` (centres unmarked) [Hexetidinsalz], the “Löslichkeit in Wasser” value in data set [3] was “leicht löslich”.
